The record followed here is patent US8772235B2, “Compounds having peptides conjugated to bone targeting moieties and methods of making and using thereof” (The Governors of the University of Alberta, priority 2009, dated 2014).

Data set [1] in a line: Effect on plasma phosphate level in normal rats (SMCC series). It is filed as in vivo, rat. Conditions: 20 IU sCT/kg equivalent, subcutaneous. Here is the method:
(§1) Pharmacodynamic response of sCT analogue was evaluated by analyzing plasma calcium concentration in the rat model. Sprague Dawley female rats weighing 230-260 g (about 6 weeks old) were purchased from Charles River, USA and housed at the University of Alberta Animal Holding Unit. All experimental protocols were approved by the Animals Ethics Committee of the University of Alberta. The rats were divided randomly into five groups of 3 animals each and the pharmacodynamic response was assessed following subcutaneous administration of the sCT or analogue equivalent to 20 IU sCT/kg body weight. Rats were anesthetized using Isoflurane inhalation anesthesia and the 200 μl blood samples were obtained in heparinized Eppendorf microtubes before drug injection. Then 100 μl of sCT or equivalent dose in 20 mM Sodium Acetate buffer pH 5 was sub cu injected and the blood samples were collected 1, 2, 3 and 4 hrs post injection from jugular vein. Blood plasma was obtained by centrifuging the samples at 5000 rpm for 10 min and collecting the supernatant. Plasma calcium level was assayed by QuantiChrom™ Calcium Assay Kit (BioAssay Systems, CA USA) and the plasma phosphate level was assayed by QuantiChrom™ Phosphate Assay Kit (BioAssay Systems, CA USA).

A short description of data set [2]: Effect on plasma calcium level in normal rats (SMCC series). It is filed as in vivo, rat. Conditions: 20 IU sCT/kg equivalent, subcutaneous. As for the experimental part:
as §1

Data set [3] can be described thus: Circular dichroism, secondary structure of sCT, sCT-SMCC and sCT-BP. It is filed as physicochemical. The conditions noted are these: 20 mM acetate buffer pH 5.0, 400 μg/mL sCT or equivalent. Here is the method: For a more detailed analysis of the influence of BP coupling on secondary structural confirmation of sCT, the circular dichroism (CD) spectrum of sCT, sCT-SMCC and sCT-BP was measured in the 20 mM acetate buffer pH 5.0. CD spectra were obtained with a ConvCD spectrophotometer instrument. Spectra were acquired over a wavelength range of 190 to 260 nm. The N2 flow rate was set at 5 l/min. The sample cuvette was cleaned with 20 mM Sodium Acetate buffer pH 5, and the spectra of test samples, which comprised of 400 μg/mL of sCT or equivalent the same buffer, were recorded with the corresponding buffer serving as blanks.
Background: CD spectra are sensitive to the conformation of chiral molecules.

The mark [4] stands for this setting: first hour, vs acetate buffer controls.

With “sCT-BP: sCT-SMCC coupled with Thiol-BP (thiol bisphosphonate); mixture of sCT-2SMCC-1BP to sCT-3SMCC-3BP”, the “percentage of plasma phosphate reduction” value was found to be 8.54±5.11% in data set [1] (4 hour post dosing), 7.65±4.73% in data set [1] (setting [4]) and 12.47±5.09% in data set [1] (second hour). For the same substance, the “percentage of plasma calcium reduction” value in data set [2] (4 hour post dosing) came out at 27.36±2.28%; in data set [2] (setting [4]), 13.45±1.64%; in data set [2] (second hour) it was 12.47±5.09%; in data set [2] (third hour), 26.62±5.28%. The “secondary structure by CD spectrum” value in data set [3] is recorded as “strong 6-helical character”.

“sCT-SMCC: sCT reacted with sulfo-SMCC: mono-, di- and tri-substituted thiol reactive sCT intermediates”: the figures for the “percentage of plasma phosphate reduction” value in data set [1] (4 hour post dosing), in data set [1] (setting [4]) and in data set [1] (second hour) were 10.4±0.54%, 9.18±1.87% and 12.18±2.03%, respectively. For the same substance, the “percentage of plasma calcium reduction” value in data set [2] (4 hour post dosing) was 28.05±2.08%; in data set [2] (setting [4]), 15.27±2.35%; in data set [2] (second hour), 19.43±2.32%; in data set [2] (third hour), 24.48±2.83%. Further, the “secondary structure by CD spectrum” value in data set [3] is listed as “increased peak intensity at 222 nm”.
